Source: patent US20190070124A1, “COMPOSITIONS OF CB2 RECEPTOR SELECTIVE AGONISTS FOR TREATMENT OF MENTAL DISORDERS” (priority 2016, published 2019)
pKi: −log10 of the molar value. Entries after “also recorded” stand apart in the source; their conditions may differ.

Key:
[1] = tested on: DOI-induced psychotic-like behaviour; assay type: in vivo, mice
cannabinoid receptor CB2 = cannabinoid receptor CB2 (Homo sapiens, UniProt P34972); conditions: cited from earlier work
[2] = tested on: murine model of schizophrenia; test: Open-field test (ambulation, rearing, grooming) in the PCP mouse model
Experimental: Mice were assessed for hyperactivity behavior on postnatal day 16 (FIG. 2). Mice were placed in the center of a transparent glass cube cage 30×40 X31 cm divided into squares of 7.5×7.5 cm. The number of squares and rearing activity were counted for 8 min.
Mice were assessed for hyperactivity behavior on postnatal day 64-66. Mice were placed in the center of a transparent glass cube cage 30×40 X31 cm divided into squares of 7.5×7.5 cm. The number of squares and rearing activity were counted for 8 min.

CB2 receptor = CB2 receptor (Homo sapiens, UniProt P34972); conditions: Chicca A. et al 2014; cited from earlier work
[3] = Skold et al. 2006; cited from earlier work
[4] = tested on: murine model of schizophrenia; test: Prepulse inhibition (PPI) of the startle reflex in the PCP mouse model; assay type: in vivo, mice; conditions: age 7-8 weeks
Experimental: In this experimental model, a weak stimulus (74-90 dB tone) inhibited the subsequent response to a strong stimulus (120 dB tone). Reduced prepulse inhibition of the startle reflex (PPI) was taken as an index of the positive symptoms of schizophrenia (Josselyn and Vaccarino, 1998).
PPI was assessed similarly to the method described by Varty et al. In the employed model, mice were placed in a startle chamber and allowed to acclimate for 5 min. A loudspeaker produced a 65 dB background white noise or the various acoustic pre-pulse stimuli (dB): 74, 78, 82, 86, and 90 (20 ms). A 120 dB (40 ms) stimulus was given first to induce a response to startle. The response of the mouse was transduced and stored by a computer. Each test session lasted for 11 min and consisted of 5 presentations of each of the trial types presented in random order and separated by 15 second intervals. The amount of prepulse inhibition was calculated as % PPI=[1−(startle response for prepulse+pulse)/(startle response for pulse alone)]×100.
The % PPI indicates of level of disruption of the sensorimotor gating system in schizophrenia but also serves as an indicator of memory function. The % PPI after administration of PCP and treatment of BCP in the PPI test also serve as an index of memory function, further supporting the function of the sensorimotor system.

[5] = Hanus et al 1999, cited from earlier work
[6] = tested on: murine model of schizophrenia; test: Elevated Plus Maze test in the PCP mouse model; assay type: in vivo, mice; conditions: age 13 weeks; PCP 5 mg/kg injected postnatally
Experimental: Anxiety as measured by the paucity of time spent on the two, anxiety-provoking, open arms (as opposed to the two enclosed arms) of an “Elevated Plus Maze” was used as a parameter of negative symptoms of schizophrenia (Josselyn and Vaccarino, 1998). The plus maze was elevated 50 cm above the table top. Behavior of each mouse was recorded for 5 min by a video camera and scored using the “EthoVision” software (Noldus Information Technology, Wageningen, The Netherlands), measuring the number of entries as well as the amount of time spent in each arm, open or closed. Increased time spent in the closed arms indicated increased anxiety. Increased time spent in the opened arms indicated anxiolytic behavior (reduced stress).

[7] = tested on: murine model of schizophrenia; test: PhenoTyper cage behaviour in the PCP mouse model; assay type: in vivo, mice; conditions: PCP 5 mg/kg injected postnatally
[8] = Body weight in the neonatal PCP mouse model of schizophrenia; conditions: PCP 5 mg/kg injected postnatally
CYP2D6 = CYP2D6 (Homo sapiens, UniProt P10635); test: CYP450 enzymatic metabolism in human liver microsomes; conditions: human liver microsomes 0.1 mg/mL, 20 min, 37 C
Experimental: CYP450 dependent activities were determined using a known substrate. […] A known inhibitor, such as quinidine, tested at a single concentration 3.00 μM was included as positive control. Incubation mixture containing human liver microsomes (0.1 mg/mL), substrate (5 μM) and standard inhibitor or test compound were warmed at 37 C for 10 minutes. Reactions were initiated by addition of the NADPH (1 mM) and the mixture was incubated for 20 minutes at 37° C. water bath. The organic solvent in the reaction mixture was DMSO. After incubation, ice cold acetonitrile was added to terminate the reaction. Generation of metabolite from the substrate reactions was determined by LC-MS/MS and assessed based on peak area ratios of analyte/IS. Mean was used to calculate the extent of inhibition (expressed as % of control activity).

Chain of CB2 receptor (P34972 whole entry): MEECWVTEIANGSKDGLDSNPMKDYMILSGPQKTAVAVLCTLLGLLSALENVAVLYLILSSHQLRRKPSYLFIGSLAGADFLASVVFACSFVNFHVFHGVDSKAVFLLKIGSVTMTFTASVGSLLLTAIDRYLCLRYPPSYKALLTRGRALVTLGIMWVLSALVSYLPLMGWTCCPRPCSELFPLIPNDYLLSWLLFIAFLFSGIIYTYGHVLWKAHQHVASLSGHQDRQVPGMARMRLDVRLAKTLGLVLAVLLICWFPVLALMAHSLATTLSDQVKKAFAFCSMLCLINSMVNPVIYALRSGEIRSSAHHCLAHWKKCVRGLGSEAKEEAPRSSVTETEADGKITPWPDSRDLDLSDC
Chain of CYP2D6 (P10635 whole entry): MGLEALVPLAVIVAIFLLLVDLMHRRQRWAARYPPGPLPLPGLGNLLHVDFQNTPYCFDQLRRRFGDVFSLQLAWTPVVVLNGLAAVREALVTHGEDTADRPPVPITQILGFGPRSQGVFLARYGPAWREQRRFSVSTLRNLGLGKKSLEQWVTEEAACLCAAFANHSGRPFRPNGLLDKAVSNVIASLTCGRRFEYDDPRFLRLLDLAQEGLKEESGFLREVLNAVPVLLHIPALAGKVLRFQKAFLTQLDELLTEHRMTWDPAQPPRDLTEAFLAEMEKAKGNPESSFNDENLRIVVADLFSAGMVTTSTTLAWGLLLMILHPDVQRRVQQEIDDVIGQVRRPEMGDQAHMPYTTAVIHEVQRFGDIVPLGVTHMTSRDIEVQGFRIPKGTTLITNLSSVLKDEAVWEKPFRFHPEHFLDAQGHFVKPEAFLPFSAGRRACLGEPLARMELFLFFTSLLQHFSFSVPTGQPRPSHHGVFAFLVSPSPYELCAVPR
Chain of cannabinoid receptor CB2 (P34972 whole entry): as the sequence (P34972 whole entry) above

COc1cc(CC(C)N)c(OC)cc1I.Cl (single isomer, unassigned; (-)) [DOI, (−)-1-(2,5-Dimethoxy-4-iodophenyl)-2-aminopropane hydrochloride, reference compound]
grooming response, DOI vs control ([1]; DOI injected intraperitoneally to mice, hydrochloride): significantly increased the grooming response

COc1ccc(C(=O)c2c(C)n(CCN3CCOCC3)c3cc(I)ccc23)cc1 [AM630, 6-Iodopravadoline, reference compound]
pKi (cannabinoid receptor CB2): 7.49 | open-field ambulation and rearing, reversal of the BCP effect ([2]; PND 17, male mice, AM630 10 mg/kg co-injected with BCP 10 mg/kg 1 h after PCP): reversed the effects of BCP on ambulation and rearing behaviors; also recorded: not significantly different from these of PCP-treated mice; also recorded: reversed the effect of BCP on PCP-induced inhibition of ambulation and rearing

C=C1CC[C@H]2O[C@]2(C)CC[C@@H]2[C@@H]1CC2(C)C [BCP oxide, Caryophyllene oxide]
CB2 receptor binding (CB2 receptor): inactivity | allergenicity [3]: found to be an allergen

CCCCCCC(C)(C)c1cc(OC)c([C@@H]2C=C(CO)[C@@H]3C[C@H]2C3(C)C)c(OC)c1 [HU-308, [(1R,2R,5R)-2-[2,6-dimethoxy-4-(2-methyloctan-2-yl)phenyl]-7,7-dimethyl-4-bicyclo[3.1.1]hept-3-enyl]methanol]
% PPI ([4]; HU-308 5 mg/kg injected 1 h after PCP postnatally (Cremophor EL:ethanol:saline), 5 mg/kg): reversed the effect of PCP on the % PPI; also recorded: reversed the effect of PCP in the PPI test | time to inhibition of DOI-induced psychotic-like behaviour ([1]; HU-308 i.p. before DOI): already after about one hour | DOI-induced grooming response ([1]; HU-308 injected intraperitoneally one to two hours before DOI): reverses the effects of the psychedelic drug DOI on behavioral symptoms in a murine model; also recorded: significantly reversed the effect of DOI on grooming response | body weight of adult mice [5]: does not modulate body weight of adult mice | psychoactivity in vivo [5]: non-psychoactive agent in vivo | open field assay ([5]; similar age of mice (about PND 63)): no effects of HU-308 in the open field assay

c1ccc(C2(N3CCCCC3)CCCCC2)cc1 [PCP, Phencyclidine, reference compound]
% prepulse inhibition, PCP vs vehicle ([4]; PCP 5 mg/kg injected postnatally): reduced the percent inhibition; also recorded: significant reduction in their ability to adjust to sound stimulus as compared to vehicle treated mice | time spent in distal end of the opened arm, females, PCP vs vehicle [6]: reduced the time spent in the distal end of the opened arm | time spent in distal end of the opened arm, males, PCP vs vehicle [6]: increased the time spent in the distal end of the opened arm | frequency of entries to the Hidden Zone, males, PCP vs vehicle ([7]; PND 91): appeared to reduce the frequency of entries to the Hidden Zone in males | frequency of entries to the wheel, PCP vs vehicle ([7]; PND 91): reduced the frequency of entries to the wheel | time spent at the Hidden Zone, PCP vs vehicle ([7]; PND 91): increased the time spend at the Hidden Zone | frequency of entries to the Hidden Zone, PCP vs vehicle ([7]; PND 105): increased the frequency of entries to the Hidden Zone | body weight, PCP vs vehicle ([8]; weight PND 3-17): significantly reduce the body weight; also recorded: induced a significant reduction in body weight; also recorded: difference between vehicle- and PCP-treated groups in body weight was still significant; also recorded: significantly reduced body weight in male and female mice | body weight, PCP vs vehicle ([8]; PND 63): no significant difference in the body weight between vehicle-treated mice and PCP-treated mice | open-field ambulation and rearing, PCP vs vehicle ([2]; PND 16-17, PCP 5 mg/kg injected postnatally): significantly inhibited both ambulation and rearing behaviors | open-field locomotor activity, males, PCP vs vehicle ([2]; PND 35-37, PCP 5 mg/kg injected postnatally): significantly increased the locomotor activity compared with vehicle treatment

C/C1=C\CC/C(C)=C/CC(C)(C)/C=C/C1 [alpha-humulene]
CB2 receptor binding (CB2 receptor): inactivity

Cc1nc2n(c(=O)c1CCN1CCC(c3noc4cc(F)ccc34)CC1)CCCC2 [risperidone, Risperidone, reference compound]
inhibition of CYP2D6 enzymatic activity (CYP2D6): inhibited the activity of CYP2D6 enzyme | inhibition of CYP2D6 enzymatic activity (CYP2D6; listed as Risperidone): inhibited CYP2D6 enzymatic activity | activity in the open field test, male mice ([2]; postnatal day 64, postnatal PCP 5 mg/kg, oral risperidone 0.5 mg/kg twice a week, PND 43-62): reversed the effect of 5 mg/kg PCP on activity in the open field test of male mice at postnatal day 64
